Source: patent publication US20020137929A1, “1 - (3-heterocyclylphenyl) isothiourea, -isourea, -guanidine and -amidine herbicidal agents” (Intellectual Property Department, BASF Aktiengesellschaft, priority 1998, published 2002)

How the values were obtained:
SETVI (Foxtail, Green) = experiment: Postemergence herbicidal evaluation; format: in vivo, Setaria viridis; details: postemergence
Method in brief: (§1)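 First, seedlings were raised for around two weeks. Next, test material in 50/50 acetone/water containing 0.5% TWEEN 20 was sprayed through a nozzle at 40 psi, equivalent to about 0.0156–0.500 kg/ha. Finally, after 4–5 weeks in the greenhouse, plants were rated 0–9.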

[1] = tested on: TRZAWR (Wheat, Winter, cv Riband); experiment: Postemergence herbicidal evaluation; format: in vivo, Triticum aestivum; details: postemergence
Method in brief: as §1

ECHCG (Barnyardgrass) [2] = experiment: Postemergence herbicidal evaluation; format: in vivo, Echinochloa crus-galli; details: postemergence
Method in brief: as §1

CASOB (Sicklepod) = experiment: Preemergence herbicidal evaluation; format: in vivo, Cassia obtusifolia; details: rated 4-5 weeks after treatment; for CASOB rating: preemergence, 0-9 scale
Method in brief: (§2)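 Herbicidal effect scored visually, 0-9, at 4 to 5 weeks against a control; compound applied preemergence by aqueous acetone spray to seeded soil at about 0.0156 to 0.500 kg/ha.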

[3] = tested on: IPOHE (Morningglory, Ivyleaf); experiment: Preemergence herbicidal evaluation; format: in vivo, Ipomoea hederacea; details: rated 4-5 weeks after treatment; for IPOHE rating: preemergence, 0-9 scale
Method in brief: as §2

ECHCG (Barnyardgrass) [4] = experiment: Preemergence herbicidal evaluation; format: in vivo, Echinochloa crus-galli; details: rated 4-5 weeks after treatment; for ECHCG rating: preemergence, 0-9 scale
Method in brief: as §2

AMBEL (Ragweed, Common) = experiment: Postemergence herbicidal evaluation; format: in vivo, Ambrosia artemisifolia; details: postemergence
Method in brief: as §1

[5] = tested on: IPOHE (Morningglory, Ivyleaf); experiment: Postemergence herbicidal evaluation; format: in vivo, Ipomoea hederacea; details: postemergence
Method in brief: as §1

ZEAMX (Corn, Field) = experiment: Preemergence herbicidal evaluation; format: in vivo, Zea mays; details: rated 4-5 weeks after treatment; for ZEAMX rating: preemergence, 0-9 scale
Method in brief: as §2

GALAP (Galium) = experiment: Preemergence herbicidal evaluation; format: in vivo, Galium aparine; details: rated 4-5 weeks after treatment; for GALAP rating: preemergence, 0-9 scale
Method in brief: as §2

ABUTH (Velvetleaf) = experiment: Postemergence herbicidal evaluation; format: in vivo, Abutilon theophrasti; details: postemergence
Method in brief: as §1

[6] = tested on: CHEAL (Lambsquarters, Common); experiment: Preemergence herbicidal evaluation; format: in vivo, Chenopodium album; details: rated 4-5 weeks after treatment; for CHEAL rating: preemergence, 0-9 scale
Method in brief: as §2

[7] = tested on: GLXMAW (Soybean, Williams); experiment: Postemergence herbicidal evaluation; format: in vivo, Glycine max, (L.) Merr. cv Williams; details: postemergence
Method in brief: as §1

[8] = tested on: ECHORC (Watergrass (Calif.)); experiment: Postemergence weed control under flooded paddy conditions; format: in vivo, Echinochloa oryzoides; details: postemergence weeds, rated 3 to 4 weeks after treatment
Method in brief: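 Flood-water application, about 0.0313–0.500 kg/ha a.i. in aqueous/acetone 50/50 v/v; water depth 1.5–3 cm throughout. Weeds 3–5 cm, rice 1.5–2.5 leaf. Greenhouse; 0–9 visual rating vs control at 3–4 wk.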

COC(=O)[C@H](Cc1ccc([N+](=O)[O-])cc1)N1C(=O)CSC1=Nc1cc(-n2c(=O)cc(C(F)(F)F)n(C)c2=O)c(F)cc1Cl [Compound 78, Methyl 2-{{2-chloro-5-[3,6-dihydro-3-methyl-2,6-dioxo-4-(trifluoromethyl)-1(2H)-pyrimidinyl]-4-fluorophenyl}imino}-4-oxo-α-(p-nitrobenzyl)-3-thiazolidineacetate, L-]
SETVI herbicidal rating (SETVI (Foxtail, Green); rate 0.0158 kg/ha): 1.0 | SETVI herbicidal rating (SETVI (Foxtail, Green); rate 0.0315 kg/ha): 1.0 | SETVI herbicidal rating (SETVI (Foxtail, Green); rate 0.0630 kg/ha): 1.0 | TRZAWR herbicidal rating ([1]; rate 0.0158 kg/ha): 3.0 | TRZAWR herbicidal rating ([1]; rate 0.0315 kg/ha): 3.5 | TRZAWR herbicidal rating ([1]; rate 0.0630 kg/ha): 3.5 | ECHCG herbicidal rating (ECHCG (Barnyardgrass) [2]; rate 0.0158 kg/ha): 1.0 | ECHCG herbicidal rating (ECHCG (Barnyardgrass) [2]; rate 0.0315 kg/ha): 1.0 | ECHCG herbicidal rating (ECHCG (Barnyardgrass) [2]; rate 0.0630 kg/ha): 1.0 | Preemergence herbicidal rating CASOB (CASOB (Sicklepod); rate 0.0313 kg/ha): 0.0 | Preemergence herbicidal rating CASOB (CASOB (Sicklepod); rate 0.0625 kg/ha): 0.0 | Preemergence herbicidal rating CASOB (CASOB (Sicklepod); rate 0.1250 kg/ha): 0.0 | Preemergence herbicidal rating CASOB (CASOB (Sicklepod); rate 0.2500 kg/ha): 1.0 | Preemergence herbicidal rating IPOHE ([3]; rate 0.0156 kg/ha): 0.0 | Preemergence herbicidal rating IPOHE ([3]; rate 0.0313 kg/ha): 0.0 | Preemergence herbicidal rating IPOHE ([3]; rate 0.0625 kg/ha): 0.0 | Preemergence herbicidal rating IPOHE ([3]; rate 0.1250 kg/ha): 0.0 | Preemergence herbicidal rating IPOHE ([3]; rate 0.2500 kg/ha): 3.0 | Preemergence herbicidal rating ECHCG (ECHCG (Barnyardgrass) [4]; rate 0.0156 kg/ha): 0.0 | Preemergence herbicidal rating ECHCG (ECHCG (Barnyardgrass) [4]; rate 0.0313 kg/ha): 0.0 | Preemergence herbicidal rating ECHCG (ECHCG (Barnyardgrass) [4]; rate 0.0625 kg/ha): 0.0 | Preemergence herbicidal rating ECHCG (ECHCG (Barnyardgrass) [4]; rate 0.1250 kg/ha): 0.0 | Preemergence herbicidal rating ECHCG (ECHCG (Barnyardgrass) [4]; rate 0.2500 kg/ha): 1.0 | AMBEL herbicidal rating (AMBEL (Ragweed, Common); rate 0.0158 kg/ha): 7.0 | AMBEL herbicidal rating (AMBEL (Ragweed, Common); rate 0.0315 kg/ha): 7.0 | AMBEL herbicidal rating (AMBEL (Ragweed, Common); rate 0.0630 kg/ha): 9.0 | IPOHE herbicidal rating ([5]; rate 0.0158 kg/ha): 9.0 | IPOHE herbicidal rating ([5]; rate 0.0315 kg/ha): 9.0 | IPOHE herbicidal rating ([5]; rate 0.0630 kg/ha): 9.0 | Preemergence herbicidal rating ZEAMX (ZEAMX (Corn, Field); rate 0.0156 kg/ha): 0.0 | Preemergence herbicidal rating ZEAMX (ZEAMX (Corn, Field); rate 0.0313 kg/ha): 0.0 | Preemergence herbicidal rating ZEAMX (ZEAMX (Corn, Field); rate 0.0625 kg/ha): 0.0 | Preemergence herbicidal rating ZEAMX (ZEAMX (Corn, Field); rate 0.1250 kg/ha): 0.0 | Preemergence herbicidal rating ZEAMX (ZEAMX (Corn, Field); rate 0.2500 kg/ha): 1.0 | Preemergence herbicidal rating GALAP (GALAP (Galium); rate 0.0156 kg/ha): 0.0 | Preemergence herbicidal rating GALAP (GALAP (Galium); rate 0.0313 kg/ha): 0.0 | Preemergence herbicidal rating GALAP (GALAP (Galium); rate 0.0625 kg/ha): 0.0 | Preemergence herbicidal rating GALAP (GALAP (Galium); rate 0.1250 kg/ha): 3.0 | Preemergence herbicidal rating GALAP (GALAP (Galium); rate 0.2500 kg/ha): 2.0 | ABUTH herbicidal rating (ABUTH (Velvetleaf); rate 0.0158 kg/ha): 7.0 | ABUTH herbicidal rating (ABUTH (Velvetleaf); rate 0.0315 kg/ha): 9.0 | ABUTH herbicidal rating (ABUTH (Velvetleaf); rate 0.0630 kg/ha): 9.0 | Preemergence herbicidal rating CHEAL ([6]; rate 0.0156 kg/ha): 9.0 | Preemergence herbicidal rating CHEAL ([6]; rate 0.0313 kg/ha): 9.0 | Preemergence herbicidal rating CHEAL ([6]; rate 0.0625 kg/ha): 9.0 | Preemergence herbicidal rating CHEAL ([6]; rate 0.1250 kg/ha): 9.0 | Preemergence herbicidal rating CHEAL ([6]; rate 0.2500 kg/ha): 9.0 | GLXMAW herbicidal rating ([7]; rate 0.0158 kg/ha): 4.0 | GLXMAW herbicidal rating ([7]; rate 0.0315 kg/ha): 4.5 | GLXMAW herbicidal rating ([7]; rate 0.0630 kg/ha): 5.5 | Herbicidal rating ECHORC ([8]; Rate 0.0313 kg/ha): 7.0 | Herbicidal rating ECHORC ([8]; Rate 0.0625 kg/ha): 7.0 | Herbicidal rating ECHORC ([8]; Rate 0.1250 kg/ha): 9.0 | Herbicidal rating ECHORC ([8]; Rate 0.2500 kg/ha): 9.0

COC(=O)C1(N2C(=O)CSC2=Nc2cc(-n3c(=O)cc(C(F)(F)F)n(C)c3=O)c(F)cc2Cl)CCCCC1 [Compound 81, Methyl 1-{2-{{2-chloro-5-[3,6-dihydro-3-methyl-2,6-dioxo-4-(trifluoromethyl)-1(2H)-pyrimidinyl]-4-fluorophenyl}imino}-4-oxo-3-thiazolidinyl}-cyclohexanecarboxylate]
SETVI herbicidal rating (SETVI (Foxtail, Green); rate 0.0158 kg/ha): 1.0 | SETVI herbicidal rating (SETVI (Foxtail, Green); rate 0.0315 kg/ha): 1.0 | SETVI herbicidal rating (SETVI (Foxtail, Green); rate 0.0630 kg/ha): 9.0 | TRZAWR herbicidal rating ([1]; rate 0.0158 kg/ha): 4.5 | TRZAWR herbicidal rating ([1]; rate 0.0315 kg/ha): 5.0 | TRZAWR herbicidal rating ([1]; rate 0.0630 kg/ha): 6.0 | ECHCG herbicidal rating (ECHCG (Barnyardgrass) [2]; rate 0.0158 kg/ha): 1.0 | ECHCG herbicidal rating (ECHCG (Barnyardgrass) [2]; rate 0.0315 kg/ha): 2.0 | ECHCG herbicidal rating (ECHCG (Barnyardgrass) [2]; rate 0.0630 kg/ha): 6.0 | CASOB rating (CASOB (Sicklepod); 0.0313 kg/ha): 0.0 | CASOB rating (CASOB (Sicklepod); 0.1250 kg/ha): 0.0 | CASOB rating (CASOB (Sicklepod); 0.2500 kg/ha): 0.0 | IPOHE rating ([3]; 0.0313 kg/ha): 0.0 | IPOHE rating ([3]; 0.1250 kg/ha): 1.0 | IPOHE rating ([3]; 0.2500 kg/ha): 9.0 | ECHCG rating (ECHCG (Barnyardgrass) [4]; 0.0313 kg/ha): 0.0 | ECHCG rating (ECHCG (Barnyardgrass) [4]; 0.0625 kg/ha): 0.0 | ECHCG rating (ECHCG (Barnyardgrass) [4]; 0.1250 kg/ha): 0.0 | ECHCG rating (ECHCG (Barnyardgrass) [4]; 0.2500 kg/ha): 1.0 | AMBEL herbicidal rating (AMBEL (Ragweed, Common); rate 0.0158 kg/ha): 9.0 | AMBEL herbicidal rating (AMBEL (Ragweed, Common); rate 0.0315 kg/ha): 9.0 | AMBEL herbicidal rating (AMBEL (Ragweed, Common); rate 0.0630 kg/ha): 9.0 | IPOHE herbicidal rating ([5]; rate 0.0158 kg/ha): 9.0 | IPOHE herbicidal rating ([5]; rate 0.0315 kg/ha): 9.0 | IPOHE herbicidal rating ([5]; rate 0.0630 kg/ha): 9.0 | ZEAMX rating (ZEAMX (Corn, Field); 0.0313 kg/ha): 0.0 | ZEAMX rating (ZEAMX (Corn, Field); 0.0625 kg/ha): 2.0 | ZEAMX rating (ZEAMX (Corn, Field); 0.1250 kg/ha): 2.0 | ZEAMX rating (ZEAMX (Corn, Field); 0.2500 kg/ha): 2.0 | GALAP rating (GALAP (Galium); 0.0313 kg/ha): 0.0 | GALAP rating (GALAP (Galium); 0.0625 kg/ha): 0.0 | GALAP rating (GALAP (Galium); 0.1250 kg/ha): 0.0 | GALAP rating (GALAP (Galium); 0.2500 kg/ha): 1.0 | ABUTH herbicidal rating (ABUTH (Velvetleaf); rate 0.0158 kg/ha): 7.0 | ABUTH herbicidal rating (ABUTH (Velvetleaf); rate 0.0315 kg/ha): 7.0 | ABUTH herbicidal rating (ABUTH (Velvetleaf); rate 0.0630 kg/ha): 9.0 | CHEAL rating ([6]; 0.0313 kg/ha): 7.0 | CHEAL rating ([6]; 0.0625 kg/ha): 9.0 | CHEAL rating ([6]; 0.1250 kg/ha): 9.0 | CHEAL rating ([6]; 0.2500 kg/ha): 9.0 | GLXMAW herbicidal rating ([7]; rate 0.0158 kg/ha): 6.5 | GLXMAW herbicidal rating ([7]; rate 0.0315 kg/ha): 6.5 | GLXMAW herbicidal rating ([7]; rate 0.0630 kg/ha): 6.5 | Herbicidal rating ECHORC ([8]; Rate 0.0625 kg/ha): 0.0 | Herbicidal rating ECHORC ([8]; Rate 0.1250 kg/ha): 3.0 | Herbicidal rating ECHORC ([8]; Rate 0.2500 kg/ha): 3.0
